Series [1] deals with S. sclerotiorum. The series is described as follows: In vitro mycelium growth inhibition test. The note with it: Sclerotinia sclerotiorum, mycelial growth, mean ± SD of three replicates; for inhibition at 50 µg/mL: 50 μg/mL, read-out: Inhibition Rate (%) S. sclerotiorum; for EC50: read-out: EC50 against S. sclerotiorum. The format is cell-based. How it is done:
(§1) B. cinerea and S. scleotiorum were kindly provided by the Department of Pesticides, College of Plant Protection, Nanjing Agricultural University (Nanjing, China). All compounds were evaluated for mycelium growth inhibition tests against the two plant pathogenic fungi mentioned in previous reports. These two fungi were inoculated on potato dextrose agar (PDA) plates and were grown in biochemical incubators at 25 ± 1 °C for 2–4 days. The new mycelium was used to determine the antifungal activity. The target compounds were dissolved in 100 µL DMF, and they were then added into the PDA media to make the concentration 50 µg/mL. Mycelia dishes of about 5 mm in diameter were cut from the culture medium. Mycelium were picked up with a sterile inoculation needle, and the sample was inoculated in the middle of a PDA plate in a sterile environment. Afterwards, a preliminary screening of fungal activity was performed. […] Each test was carried out three times. The radial growth of the fungal colonies was gauged and recorded when the diameters of the blank control mycelia reached 5.0–5.5 cm. […] The final data were analyzed using SPSS v.25.0 (IBM, New York, NY, USA). The following formula was used to calculate the fungi inhibition rate. Inhibition rate (%) = [(Mycelium diameter of negative control − Mycelium diameter of treatment)/(Mycelium diameter of negative control − 0.5)] × 100%(1)

For a further series, the system named is B. cinerea. The series is described as follows: In vitro mycelium growth inhibition test. The series is classed as cell-based. As to conditions: Botrytis cinerea; 50 μg/mL; mycelial growth; mean ± SD of three replicates; read-out: Inhibition Rate (%) B. cinerea. Here is the method: as §1
Another series can be described thus: MTT cytotoxicity assay. The format is cell-based. As to conditions: human, L-02 normal liver cells, L-02 cells. How it is done: The human liver L-02 cells were obtained from the biology laboratory in Key Laboratory of Chemistry for Natural Products of Guizhou Province and Chinese Academy of Sciences (Guiyang, China). The cells were grown in Dulbecco’s Modified Eagle’s Medium (supplemented with 10% (v/v) FBS, 100 U/mL penicillin, and 100 μg/mL streptomycin) at 37 °C in a CO2 incubator (5% CO2 and 95% air, 95% humidity). The effect of some compounds on cell viability was determined with the MTT assay according to the previously published literature. A total of 5000 cells were inoculated in a 96-well plate and three wells of each concentration of test compound were used. A total of 24 h after inoculation, the cells had grown to ~60% confluency, and different concentrations of compounds were added, and then the cells were cultured for 48 h. DMSO was used as the control. A total of 20 μL of MTT solution was added to each well and incubated at 37 °C for 4 h. Formazan crystals were dissolved in 150 μL of DMSO and quantified using a microplate reader (Thermo Scientific, Vario Skan Flash, Shanghai Bio-Gene Technology Co., LTD, Shanghai, China) at 490 nm. The cytotoxicity was calculated according to following formula:Cytotoxicity (%) = [(OCK − OT)/OCK] × 100%(2) where OCK represents the optical density (OD) value of the blank control group, and OT represents the OD value of experimental group.
A general note: Tetrazolium dyes change colour on reduction, which living cells bring about.

Another series concerns B. xylophilus. The series is described as follows: microbe, parasite or virus in culture. As to conditions: Bursaphelenchus xylophilus, 48 h, read-out: Corrected Mortality Rate ± SD (%) B. xylophilus. The text has this:
(§2) M. incognita (parasitic on tomato plants), A. besseyi (potato dextrose agar–Botrytis cinerea breeding), B. xylophilus (potato dextrose agar–Botrytis cinerea breeding), and C. elegans (nematode growth medium–inactivated Escherichia coli OP50 cultivation) were provided by the Fine Chemical Research and Development Center of Guizhou University (Guizhou, China). The methodology used for the nematocidal bioassays of these target compounds was modified in the light of the conventional methods reported in the previously published literature. The nematicidal activity of the target compounds against four nematodes was determined using 48-well biochemical culture dishes. All of the compounds were dissolved with 100 μL DMF and were diluted with 1% Tween-80 to obtain 200 and 50 μg/mL concentrations for the bioassays. Fosthiazate and tioxazafen were used as positive controls at the same concentrations, and a negative control group was prepared without compounds using the same methodology. An amount of 10 µL of nematode suspension (about 50 nematodes) and 300 µL of the trial solution were added to corresponding hole, and each treatment was set to three repetitions. All of the 48-well plates were placed in a biochemical incubator at 27 °C for dark light culture. […] Corrected mortality (%) = [(mortality of treatment % − mortality of negative control %)/(1 − mortality of negative control %)] × 100%(3)

The test system of a further series is M. incognita. The series is described as follows: microbe, parasite or virus in culture. As to conditions: Meloidogyne incognita, 48 h, read-out: Corrected Mortality Rate ± SD (%) M. incognita.
Text: as §2

The subject of a further series is C. elegans. The series is described as follows: microbe, parasite or virus in culture. As to conditions: Caenorhabditis elegans, 48 h, read-out: Corrected Mortality Rate ± SD (%) C. elegans.
Text: as §2

The next series has as its system A. besseyi. The series is described as follows: microbe, parasite or virus in culture. The note with it: Aphelenchoides besseyi, 48 h, read-out: Corrected Mortality Rate ± SD (%) A. besseyi.
Text: as §2

Series [2] concerns S. sclerotiorum. The series is described as follows: In vivo protective activity assay on infected cole leaves. The arrangement: species or system Sclerotinia sclerotiorum. The note with it: sprayed 24 h before inoculation, 72 h. The text has this: (§3) Susceptible cole leaves collected from Guizhou Academy of Agricultural Sciences were used to determine the in vivo efficacy of F15 according to previous literature. […] Vaccination time was used to distinguish between the protective activity assays and curative activity assays. A 5 mm mycelia dish was placed at the widest center of the cole leaf, and it was ensured that it was not placed on the main vein of the leaf. For the protective activity assay, test compounds with different concentrations were sprayed on the leaves until the liquid reached the surface. Inoculation was conducted after 24 h. For the curative activity assay, which took place 24 h after inoculation, compounds of different concentrations were sprayed on the surfaces of the leaves until the liquid flowed. Fluopyram and sterile distilled water were used as a positive control and negative control, respectively. All of the inoculated leaves were placed inside of a 25 °C light incubator with 85% relative humidity and a 16 h photoperiod for disease development. The average diameters of the lesions were measured using the cross method after 72 h. The disease control efficacy was obtained through the following formula:Control efficacy (%) = (1 − DT/DCK) × 100%(4) where DCK represents the lesion diameter of the sterile distilled water control, and DT represents the lesion diameters of the treatment samples. Each test was carried out five times, and the experiment was performed three times.

In series [3] the test system is S. sclerotiorum. The series is described as follows: In vivo curative activity assay on infected cole leaves. The arrangement: species or system Sclerotinia sclerotiorum. The note with it: sprayed 24 h after inoculation, 72 h.
Text: as §3

Converted amounts (≈) assume the structure as drawn.

On to `O=C(NCCc1ccccn1)c1nc(-c2ccc(Cl)cc2)no1` [Compound F9, 3-(4-chlorophenyl)-N-(2-(pyridin-2-yl)ethyl)-1,2,4-oxadiazole-5-carboxamide], for which the inhibition at 50 µg/mL is 61.1 ± 0.7% in the series with S. sclerotiorum [1] and 26.7 ± 0.5% in the series on B. cinerea. In the series on S. sclerotiorum [1], the EC50 was determined as 18.7 ± 0.4 µg/mL (≈ 56.9 µM). For the same compound, the cytotoxicity at 48 h, 50 μg/mL in “MTT cytotoxicity assay” is -2.5 ± 0.2%. Besides, the cytotoxicity at 48 h, 100 μg/mL in the series “MTT cytotoxicity assay” is 7.1 ± 6.5%. For the same compound, in the series “MTT cytotoxicity assay”, the cytotoxicity at 48 h, 200 μg/mL is 31.5 ± 8.7%. The mortality at 50 µg/mL in the series with B. xylophilus turned out to be 0%; with M. incognita it was 9.8 ± 2.5%; with C. elegans, 62.1 ± 2.2%; in the series on A. besseyi it was 0%. The mortality at 200 µg/mL in the series with B. xylophilus was determined as 14.5 ± 2.5%; in the series on M. incognita it was 56.3 ± 2.4%; in the series on C. elegans, 87.6 ± 1.1%; with A. besseyi, 12.8 ± 2.3%.
In the case of `O=C(NCCc1ncc(C(F)(F)F)cc1Cl)c1nc(-c2cccs2)no1` [Compound F14], in the series on S. sclerotiorum [1], the inhibition at 50 µg/mL came out at 65.2 ± 0.2% and the EC50 was 15.3 ± 1.3 µg/mL (≈ 38 µM). Also, in the series with B. cinerea, the inhibition at 50 µg/mL is 36.4 ± 0.2%. Also, in the series “MTT cytotoxicity assay”, the cytotoxicity at 48 h, 50 μg/mL was determined as 18.8 ± 2.5%; the cytotoxicity at 48 h, 100 μg/mL was 21.4 ± 5%; the cytotoxicity at 48 h, 200 μg/mL was found to be 39.1 ± 8.4%. For the same compound, in the series with B. xylophilus, the mortality at 50 µg/mL stood at 0% and the mortality at 200 µg/mL was 6.9 ± 1.8%. In the series on M. incognita, the mortality at 50 µg/mL came out at 0% and the mortality at 200 µg/mL is 12.3 ± 2.3%. Besides, in the series on C. elegans, the mortality at 50 µg/mL came to 70 ± 0.6% and the mortality at 200 µg/mL is 100%. Besides, in the series with A. besseyi, the mortality at 50 µg/mL was determined as 0% and the mortality at 200 µg/mL is 27 ± 0.8%.
On to `O=C(NCCc1ncc(C(F)(F)F)cc1Cl)c1ccccc1C(F)(F)F` [Fluopyram, fluopyram, reference compound], for which the “Protective Effect Control Efficacy (%)” value was determined as 66.8% with S. sclerotiorum [2] (25 μg/mL), 69.3% in the series with S. sclerotiorum [2] (50 μg/mL) and 75.6% with S. sclerotiorum [2] (100 μg/mL). For the same compound, the results for the “Protective Effect Lesion Length” value in the series on S. sclerotiorum [2] (25 μg/mL), with S. sclerotiorum [2] (50 μg/mL) and in the series with S. sclerotiorum [2] (100 μg/mL) were 7.9 ± 0.1 mm, 7.3 ± 0.2 mm and 5.8± 0.1 mm, respectively. Besides, the “Curative Effect Control Efficacy (%)” value was determined as 65.0% in the series on S. sclerotiorum [3] (25 μg/mL), 71.4% with S. sclerotiorum [3] (50 μg/mL) and 74.1% in the series on S. sclerotiorum [3] (100 μg/mL). Besides, the “Curative Effect Lesion Length” value with S. sclerotiorum [3] (25 μg/mL) amounted to 7.7 ± 0.6 mm; in the series on S. sclerotiorum [3] (50 μg/mL), 6.3 ± 0.2 mm; in the series on S. sclerotiorum [3] (100 μg/mL), 5.7 ± 0.6 mm. In addition, the inhibition at 50 µg/mL in the series with S. sclerotiorum [1] stood at 93.7 ± 1.7%; with B. cinerea, 87.3 ± 0.6%. Also, in the series with S. sclerotiorum [1], the EC50 came out at 1.2 ± 1.6 µg/mL (≈ 3.02 µM). In addition, the cytotoxicity at 48 h, 50 μg/mL in the series “MTT cytotoxicity assay” was 3.8 ± 2.5%. Also, the cytotoxicity at 48 h, 100 μg/mL in “MTT cytotoxicity assay” is 40.1 ± 1.2%. In addition, the cytotoxicity at 48 h, 200 μg/mL in the series “MTT cytotoxicity assay” worked out at 55.1 ± 0.4%. The mortality at 50 µg/mL in the series on B. xylophilus, in the series on M. incognita, in the series with C. elegans and with A. besseyi was 100% throughout. Moreover, the mortality at 200 µg/mL in the series on B. xylophilus, with M. incognita, with C. elegans and in the series with A. besseyi was 100% throughout.

As a reminder, the inhibition is the percentage by which the read-out fell short of the control. By EC50 is commonly meant the midpoint of the concentration-response curve. Broadly, the mortality is the share of the test organisms that died.

These data come from PMC8836147, “Design, Synthesis and Antifungal/Nematicidal Activity of Novel 1,2,4-Oxadiazole Derivatives Containing Amide Fragments” (International Journal of Molecular Sciences, 2022).
